Measured values from PMC3570965 (Science translational medicine, 2012).
Like-named read-outs stand apart in the source and are kept apart here.

Key:
[1] = Pharmacokinetic analyses in NOD/SCID mice; assay type: in vivo
[2] = tested on: NSCLC cell line-derived xenograft; test: NSCLC; assay type: in vivo, mice; conditions: same erlotinib regimen (12.5 mg/kg by gavage every 12 h)
[3] = cited from earlier work
ccRCC = conditions: patients with ccRCC, randomized phase II trial; cited from earlier work
ccRCC tumorgraft lines = test: Drug trials in subcutaneous ccRCC tumorgraft lines; assay type: in vivo, NOD/SCID mice; conditions: 4 ccRCC tumorgraft lines; dovitinib 30 mg/kg by gavage
[4] = tested on: papillary RCC tumorgraft line (TG121); test: Drug trial in papillary RCC tumorgraft line TG121; assay type: in vivo, NOD/SCID mice; conditions: dovitinib 30 mg/kg by gavage
[5] = tested on: TG144 tumorgraft-bearing mice; test: Serum calcium; assay type: in vivo, NOD/SCID mice; conditions: TG144, end of trial

**Q.** Which results are given for `C#Cc1cccc(Nc2ncnc3cc(OCCOC)c(OCCOC)cc23)c1` [erlotinib]?
**A.** peak and overall exposures compared with humans ([1]; erlotinib 12.5 mg/kg by gavage every 12 h, mice): higher; effect on NSCLC cell line-derived xenograft growth [2]: profound effect; half-life ([3]; humans): 24 h; outcomes in combination with bevacizumab vs bevacizumab alone (ccRCC): failed to show improved outcomes

**Q.** What does the source list for `CCN(CC)CCNC(=O)c1c(C)[nH]c(/C=C2\C(=O)Nc3ccc(F)cc32)c1C` [sunitinib]?
**A.** peak exposures compared with humans ([1]; sunitinib 10 mg/kg by gavage every 12 h, mice): slightly higher than in humans; half-life compared with humans ([1]; sunitinib, mice vs humans): much shorter in mice

**Q.** What does the source list for `CO[C@H]1C[C@@H]2CC[C@@H](C)[C@@](O)(O2)C(=O)C(=O)N2CCCC[C@H]2C(=O)O[C@H]([C@H](C)C[C@@H]2CC[C@@H](O)[C@H](OC)C2)CC(=O)[C@H](C)/C=C(\C)[C@@H](O)[C@@H](OC)C(=O)[C@H](C)C[C@H](C)/C=C/C=C/C=C/1C` [sirolimus]?
**A.** peak and overall exposures, fold higher than in humans ([1]; sirolimus 0.5 mg/kg intraperitoneally every 48 h, NOD/SCID mice vs humans): 2-3 fold; share of circulating drug after temsirolimus administration ([3]; humans, after temsirolimus administration): 75%; therapeutic range (trough levels) in humans ([3]; humans): 5 to 15 ng/mL

**Q.** With `CN1CCN(c2ccc3nc(-c4c(N)c5c(F)cccc5[nH]c4=O)[nH]c3c2)CC1` [dovitinib] as the compound, how does the “peak and overall exposures compared with humans” value ([1]; dovitinib 30 mg/kg daily by gavage, mice) read?
**A.** within the range reported in humans

**Q.** And the “effect on ccRCC tumorgraft growth” value (ccRCC tumorgraft lines)?
**A.** profoundly suppressed

**Q.** What about the “activity in papillary RCC tumorgraft line” value [4] of the same compound?
**A.** very active

**Q.** What about the “effect on paraneoplastic hypercalcemia (serum calcium)” value [5] of the same compound?
**A.** inhibited the development of paraneoplastic hypercalcemia

**Q.** What about the “Terminal t1/2” value ([3]; human, 500 mg PO qd, PK data at (D15), analyte Dovitinib, ref Kim, et al 2011) of the same compound?
**A.** 21 h

**Q.** Which results are given for `CCNCCNC(=O)c1c(C)[nH]c(/C=C2\C(=O)Nc3ccc(F)cc32)c1C` [desethyl sunitinib]?
**A.** metabolite as share of total circulating drug ([1]; NOD/SCID mice, day 1, after sunitinib): 38%; metabolite as share of total circulating drug ([3]; humans, day 1, after sunitinib, ref Table 6): 13%

**Q.** Which Cmin ([3]; human, 10 mg PO qd, analyte Everolimus, mean ± SD, ref Awada et al., 2008) does the source give for `CO[C@H]1C[C@@H]2CC[C@@H](C)[C@@](O)(O2)C(=O)C(=O)N2CCCC[C@H]2C(=O)O[C@H]([C@H](C)C[C@@H]2CC[C@@H](OCCO)[C@H](OC)C2)CC(=O)[C@H](C)/C=C(\C)[C@@H](O)[C@@H](OC)C(=O)[C@H](C)C[C@H](C)/C=C/C=C/C=C/1C` [Everolimus] here?
**A.** 0.0132 ± 0.0072 µg/mL
